Assay type in all cases: cell-based
Experiment [1] relates to BRD4, BRD3 and c-MYC in HL60. Kind of experiment: Immunoblot (protein level) in HL60. The conditions noted are these: HL60, 500 nM. As to the method:
(§1) FIGS. 43A-43L illustrate effects of OTX015 at the protein level for BRD 4, BRD2 and BRD 3 as well as c-MYC. […] AML cell lines HL60, K562 (FIGS. 43A-43C; FIG. 43D-43F) and ALL cell lines Jurkat and RS4-11 (FIG. 43G-43I; FIG. 4JD-43L) were treated with OTX015 at 500 nM and compared to controls exposed to according DMSO. At indicated time-points proteins were extracted and immunoblotted with BRD4, BRD3, BRD2 or c-MYC antibodies after gel electrophoresis. […] One representative experiment out of three is shown.
(§2) The membranes were blocked with LiCor blocking buffer (LiCor, Lincoln, Nebr., USA) and incubated with the respective primary antibody: anti-BRD4 (Epitomics 5716-1, Burlingame, USA), anti-BRD3 (ab56342, AbCam, UK), anti-BRD2 (ab37633, AbCam, UK), anti c-MYC (sc-764 (N262), Santa Cruz, USA) and anti-GAPDH (Invitrogen 398600, Grand Island, USA). Blots were stained with either goat anti-rabbit InfraRedDye 680RD or goat anti-mouse InfraRedDye 800CWsecondary antibody (LiCor). Membranes were imaged using a LiCor Odyssey scanner. Boxes were manually placed around each band of interest, which returned near-infrared fluorescent values of raw intensity with intra-lane background subtracted using Odyssey 3.0 analytical software (LiCor).

In the next experiment the test system is TOM-1. Briefly: MTT assay. To be noted: TOM-1, MTT at 72 h. The procedure:
(§3) Different representative cell lines for ALL including Jurkat cells (T-ALL), RS 4-11 (MLL-AF4 B-precursor ALL), TO′M-1, BV173 (both Ph+ALL) and AML including K562 (Ph+CML in blast crisis,), HL-60 (NRAS driven AML2), NOMO1 (MLL-AF9 driven AML), KG1 (BMP-FGRF+AML6) and its more immature subtype KG1a were cultured in RPMI 1640 (Gibco Invitrogen, Basel, Switzerland) supplemented with 10% or 20% heat-inactivated fetal calf serum respectively, 2 mM L-glutamine, 100 IU/mL penicillin, and 100 µg/mL streptomycin.
(§4) MTT-assay: cells were seeded first into 24-well plates at the density of […] per well to avoid variations of concentrations in smaller volumes and treated with different doses of OTX015 prepared freshly from 1 mM stock solution in DMSO. Cells were transferred to 96-well plates for MTT-assay. Untreated cells and cells treated with equal amounts of DMSO (0.2-1%) used for dilution of OTX015 were used as controls. The 3-(4,5-dimethylthiazol-2-yl)-2,5-diphenyltetrazolium bromide (MTT) (Molecular Probes, Eugene, USA) was prepared as a stock of 5 mg/ml in PBS. 0.5 mg/mL of MTT solution was then added per well and incubated in the dark at 37° C. for 4 h. Cells were then lysed with 25% SDS lysis buffer and absorbance was read at 570 nm. Two independent experiments were run for each cell line. GI50 values were calculated with Prism v5 software (GraphPad Inc., La Jolla, USA).
(§5) AML and ALL cell lines were exposed to increasing concentrations of compound (1-1), (0.1 nM-10 μM). […] GI50 values were expressed as means from 3 independent experiments.

The next experiment has as its system BV-173. Briefly: MTT assay. To be noted: Homo sapiens; BV-173, MTT at 72 h. The procedure:
as §3, §4, §5

The next experiment has as its system KG1. Briefly: MTT assay. To be noted: Homo sapiens, KG-1; KG1, MTT at 72 h. As to the method: as §3, §4, §5
The next experiment concerns NOMO1. Kind of experiment: MTT assay. The conditions noted are these: Homo sapiens, NOMO-1; NOMO1, MTT at 72 h. As to the method: as §3, §4, §5
The test system of a further experiment is K562. Briefly: MTT assay. To be noted: Homo sapiens, K562, 72 h, K562, MTT at 72 h. The procedure: as §3, §4, §5
In a further experiment the test system is Jurkat. Briefly: MTT assay. To be noted: Homo sapiens, MTT at 72 h. As to the method:
as §3, §4, §5

In the next experiment the test system is KG1a. Kind of experiment: MTT assay. The conditions noted are these: Homo sapiens, KG-1a, MTT at 72 h. As to the method:
as §3, §4, §5

Another experiment concerns RS4-11. Briefly: MTT assay. The conditions noted are these: Homo sapiens; RS4-11, MTT at 72 h. The procedure: as §3, §4, §5
The test system of the next experiment is HL60. Kind of experiment: MTT assay. The conditions noted are these: Homo sapiens, HL-60, HL60, MTT at 72 h. As to the method:
as §3, §4, §5

Experiment [2] deals with BRD4, BRD3 and c-MYC in K562. Kind of experiment: Immunoblot (protein level) in K562. To be noted: K562, 500 nM, starting after 24 h. As to the method: as §1, §2
The test system of experiment [3] is ALL cell lines (Jurkat, RS 4-11, TOM-1) and AML cell lines (HL60, K562, KG1 and KG1a). Kind of experiment: Apoptosis assessment, statements over the ALL and AML cell lines. As to the method: a total of 1×10^6 cellsderived from patients or cell lines were resuspended in 1 mL culture medium and incubated with the indicated dosages of OTX015 prepared freshly from 1 mM stock solution in DMSO. Control cells were incubated with the corresponding amount of dimethyl sulfoxide (DMSO 0.2-1%) to exclude toxicity of the excipient. Apoptotic cells were detected by cytofluorometric analysis using a FACScan (Becton Dickinson, Mountain View, USA). Cells were stained with propidium iodide (PI; 5 μg/mL; Becton Dickinson) and concomitantly for 15 minutes at RT with annexin-V-FITC (Becton Dickinson) according to the manufacturer's instructions to determine outer membrane phosphatidyl serine exposure. Data were analyzed with the Flowjo (Tree Star Inc., Ashland, USA) flow cytometry software.
Compound (1-1) induced apoptosis in three ALL cell lines (Jurkat, RS 4-11, TOM-1) and four AML cell lines (HL60, K562, KG1 and KG1a) that were treated with different doses of the drug as detected by outer membrane phosphatidylserine exposure and propidium iodide incorporation at different time points (FIGS. 13A-13C and FIGS. 14A-14D). […] In all other cell lines, 50% of cells became apoptotic within 12 to 24 hours after treatment with 100 nM of Compound (1-1).

For the compound `Cc1sc2c(c1C)C(c1ccc(Cl)cc1)=N[C@@H](CC(=O)Nc1ccc(O)cc1)c1nnc(C)n1-2` [Compound (1-1), 2-[(6S)-4-(4-chlorophenyl)-2,3,9-trimethyl-6H-thienol[3,2-f]-[1,2,4]triazolo[4,3-a][1,4]diazepin-6-yl]-N-(4-hydroxyphenyl)acetamide dihydrate], the c-MYC protein level result in experiment [1] (24 h) was “transient downregulation”. In experiment [1] (72 h), the “BRD4 and BRD3 protein level” value was “remained unaffected”. The GI50 was 133 nM with TOM-1; 161 nM in the experiment with BV-173; 198 nM in the experiment with KG1; 229 nM with NOMO1; 11300 nM in the experiment on K562; 11300 nM with K562 (mean of 3 independent experiments). The GI50 in the experiment on Jurkat came to 250 nM; in the experiment on KG1a, 1340 nM; in the experiment with RS4-11, 34.2 nM; with HL60, 1310 nM. Besides, the IC50 in the experiment with KG1a (read-out: GI value) and with HL60 (read-out: GI value) was 1300 nM each time. Further, the “BRD4, BRD3 and c-MYC protein level” value in [2] was “downregulation of BRD4, BRD3 and c-MYC”. The “percentage of apoptotic cells” value in [3] (100 nM, within 12 to 24 hours, all cell lines other than K562 and KG1a) came to 50%. Further, the “induction of apoptosis, dose dependence” value in experiment [3] (72 h, KG1a, NOMO1, RS4-11, BV-173, Jurkat, TOM-1) is “dose-dependent manner”. The induction of apoptosis result in experiment [3] (different doses and time points) is “induced apoptosis in all cell lines tested but to a lesser extent in K562 and KG1a cells”.

For the origin of these results see patent US20160158245A1, “PHARMACEUTICAL FORMULATION CONTAINING THIENOTRIAZOLODIAZEPINE COMPOUNDS” (ONCOETHIX GmbH, priority 2013, published 2016).
